ChEMBL document CHEMBL2346657, “Synthesis of novel 2-amino-4-(5'-substituted 2'-phenyl-1H-indol-3'-yl)-6-aryl-4H-pyran-3-carbonitrile derivatives as antimicrobial and antioxidant agents” (2013)
Activity calls are given as the source filed them. No rule for the calls is given here.

Key:
Assay type in all cases: functional
[1] = Antioxidant activity assessed as metal chelating activity by measuring inhibition of ferrozine-Fe2+ complex formation at 25 to 100 ug/ml
Aspergillus flavus [2] = experiment: Antimicrobial activity against Aspergillus flavus MTCC 1973 at 500 ug/ml after 72 hrs by cup plate method; settings: MTCC 1973, 72 h, read-out: IZ
Aspergillus flavus [3] = experiment: Antimicrobial activity against Aspergillus flavus MTCC 1973 at 750 ug/ml after 72 hrs by cup plate method; settings: MTCC 1973, 72 h, read-out: IZ
Aspergillus flavus [4] = experiment: Antimicrobial activity against Aspergillus flavus MTCC 1973 at 1000 ug/ml after 72 hrs by cup plate method; settings: MTCC 1973, 72 h, read-out: IZ
Aspergillus terreus [5] = experiment: Antimicrobial activity against Aspergillus terreus MTCC 1782 at 500 ug/ml after 72 hrs by cup plate method; settings: MTCC 1782, 72 h, read-out: IZ
Aspergillus terreus [6] = experiment: Antimicrobial activity against Aspergillus terreus MTCC 1782 at 750 ug/ml after 72 hrs by cup plate method; settings: MTCC 1782, 72 h, read-out: IZ
Aspergillus terreus [7] = experiment: Antimicrobial activity against Aspergillus terreus MTCC 1782 at 1000 ug/ml after 72 hrs by cup plate method; settings: MTCC 1782, 72 h, read-out: IZ
Aspergillus oryzae [8] = experiment: Antimicrobial activity against Aspergillus oryzae MTCC 3567 at 500 ug/ml after 72 hrs by cup plate method; settings: MTCC 3567, 72 h, read-out: IZ
Aspergillus oryzae [9] = experiment: Antimicrobial activity against Aspergillus oryzae MTCC 3567 at 750 ug/ml after 72 hrs by cup plate method; settings: MTCC 3567, 72 h, read-out: IZ
Aspergillus oryzae [10] = experiment: Antimicrobial activity against Aspergillus oryzae MTCC 3567 at 1000 ug/ml after 72 hrs by cup plate method; settings: MTCC 3567, 72 h, read-out: IZ
Aspergillus niger [11] = experiment: Antimicrobial activity against Aspergillus niger MTCC 281 at 500 ug/ml after 72 hrs by cup plate method; settings: MTCC 281, 72 h, read-out: IZ
Aspergillus niger [12] = experiment: Antimicrobial activity against Aspergillus niger MTCC 281 at 750 ug/ml after 72 hrs by cup plate method; settings: MTCC 281, 72 h, read-out: IZ
Aspergillus niger [13] = experiment: Antimicrobial activity against Aspergillus niger MTCC 281 at 1000 ug/ml after 72 hrs by cup plate method; settings: MTCC 281, 72 h, read-out: IZ
Pseudomonas aeruginosa [14] = experiment: Antimicrobial activity against Pseudomonas aeruginosa MTCC 1688 at 500 ug/ml after 24 hrs by cup plate method; settings: MTCC 1688, 24 h, read-out: IZ
Pseudomonas aeruginosa [15] = experiment: Antimicrobial activity against Pseudomonas aeruginosa MTCC 1688 at 750 ug/ml after 24 hrs by cup plate method; settings: MTCC 1688, 24 h, read-out: IZ
Pseudomonas aeruginosa [16] = experiment: Antimicrobial activity against Pseudomonas aeruginosa MTCC 1688 at 1000 ug/ml after 24 hrs by cup plate method; settings: MTCC 1688, 24 h, read-out: IZ
Klebsiella pneumoniae [17] = experiment: Antimicrobial activity against Klebsiella pneumoniae NCTC 13368 at 500 ug/ml after 24 hrs by cup plate method; settings: NCTC 13368, 24 h, read-out: IZ
Klebsiella pneumoniae [18] = experiment: Antimicrobial activity against Klebsiella pneumoniae NCTC 13368 at 750 ug/ml after 24 hrs by cup plate method; settings: NCTC 13368, 24 h, read-out: IZ
Klebsiella pneumoniae [19] = experiment: Antimicrobial activity against Klebsiella pneumoniae NCTC 13368 at 1000 ug/ml after 24 hrs by cup plate method; settings: NCTC 13368, 24 h, read-out: IZ
Staphylococcus aureus [20] = experiment: Antimicrobial activity against Staphylococcus aureus ATCC 29513 at 500 ug/ml after 24 hrs by cup plate method; settings: ATCC 29513, 24 h, read-out: IZ
Staphylococcus aureus [21] = experiment: Antimicrobial activity against Staphylococcus aureus ATCC 29513 at 750 ug/ml after 24 hrs by cup plate method; settings: ATCC 29513, 24 h, read-out: IZ
Staphylococcus aureus [22] = experiment: Antimicrobial activity against Staphylococcus aureus ATCC 29513 at 1000 ug/ml after 24 hrs by cup plate method; settings: ATCC 29513, 24 h, read-out: IZ
Escherichia coli [23] = experiment: Antimicrobial activity against Escherichia coli MTCC 723 at 500 ug/ml after 24 hrs by cup plate method; settings: MTCC 723, 24 h, read-out: IZ
Escherichia coli [24] = experiment: Antimicrobial activity against Escherichia coli MTCC 723 at 750 ug/ml after 24 hrs by cup plate method; settings: MTCC 723, 24 h, read-out: IZ
Escherichia coli [25] = experiment: Antimicrobial activity against Escherichia coli MTCC 723 at 1000 ug/ml after 24 hrs by cup plate method; settings: MTCC 723, 24 h, read-out: IZ

Compound	Activity [1]	zone of inhibition at 500 µg/mL (Aspergillus flavus [2]) [mm]	zone of inhibition at 750 µg/mL (Aspergillus flavus [3]) [mm]	zone of inhibition at 1000 µg/mL (Aspergillus flavus [4]) [mm]	zone of inhibition at 500 µg/mL (Aspergillus terreus [5]) [mm]	zone of inhibition at 750 µg/mL (Aspergillus terreus [6]) [mm]	zone of inhibition at 1000 µg/mL (Aspergillus terreus [7]) [mm]	zone of inhibition at 500 µg/mL (Aspergillus oryzae [8]) [mm]	zone of inhibition at 750 µg/mL (Aspergillus oryzae [9]) [mm]	zone of inhibition at 1000 µg/mL (Aspergillus oryzae [10]) [mm]	zone of inhibition at 500 µg/mL (Aspergillus niger [11]) [mm]	zone of inhibition at 750 µg/mL (Aspergillus niger [12]) [mm]	zone of inhibition at 1000 µg/mL (Aspergillus niger [13]) [mm]	zone of inhibition at 500 µg/mL (Pseudomonas aeruginosa [14]) [mm]	zone of inhibition at 750 µg/mL (Pseudomonas aeruginosa [15]) [mm]	zone of inhibition at 1000 µg/mL (Pseudomonas aeruginosa [16]) [mm]	zone of inhibition at 500 µg/mL (Klebsiella pneumoniae [17]) [mm]	zone of inhibition at 750 µg/mL (Klebsiella pneumoniae [18]) [mm]	zone of inhibition at 1000 µg/mL (Klebsiella pneumoniae [19]) [mm]	zone of inhibition at 500 µg/mL (Staphylococcus aureus [20]) [mm]	other results
Nc1nc(=S)[nH]c2c1C(c1c(-c3ccccc3)[nH]c3ccccc13)C=C(c1ccc(Cl)cc1)O2 (stereo not given)	Active	12	12	5	8	5	5	9	8	8	3	3	5	10	10	10	8	8	5	10	zone of inhibition at 750 µg/mL (Staphylococcus aureus [21]): 10 mm; zone of inhibition at 1000 µg/mL (Staphylococcus aureus [22]): 11 mm; zone of inhibition at 500 µg/mL (Escherichia coli [23]): 10 mm; zone of inhibition at 750 µg/mL (Escherichia coli [24]): 10 mm; zone of inhibition at 1000 µg/mL (Escherichia coli [25]): 10 mm
Cc1ccc(C2=CC(c3c(-c4ccccc4)[nH]c4ccc(C)cc34)c3c(N)nc(=O)[nH]c3O2)cc1 (stereo not given)	Active	2	2	2	9	9	9	0	0	0	10	10	10	10	10	10	10	10	10	8	zone of inhibition at 750 µg/mL (Staphylococcus aureus [21]): 5 mm; zone of inhibition at 1000 µg/mL (Staphylococcus aureus [22]): 2 mm; zone of inhibition at 500 µg/mL (Escherichia coli [23]): 13 mm; zone of inhibition at 750 µg/mL (Escherichia coli [24]): 13 mm; zone of inhibition at 1000 µg/mL (Escherichia coli [25]): 14 mm
Nc1nc(=S)[nH]c2c1C(c1c(-c3ccccc3)[nH]c3ccc(Cl)cc13)C=C(c1ccccc1)O2 (stereo not given)	Active	8	8	8	9	8	8	10	10	0	5	5	10	6	5	5	10	10	10	9	zone of inhibition at 750 µg/mL (Staphylococcus aureus [21]): 9 mm; zone of inhibition at 1000 µg/mL (Staphylococcus aureus [22]): 9 mm; zone of inhibition at 500 µg/mL (Escherichia coli [23]): 10 mm; zone of inhibition at 750 µg/mL (Escherichia coli [24]): 8 mm; zone of inhibition at 1000 µg/mL (Escherichia coli [25]): 8 mm
Cc1ccc(C2=CC(c3c(-c4ccccc4)[nH]c4ccc(C)cc34)C(C#N)=C(N)O2)cc1 (stereo not given)	Active	0	0	0	0	9	9	12	13	13	0	0	0	10	10	8	9	9	9	14	zone of inhibition at 750 µg/mL (Staphylococcus aureus [21]): 14 mm; zone of inhibition at 1000 µg/mL (Staphylococcus aureus [22]): 14 mm; zone of inhibition at 500 µg/mL (Escherichia coli [23]): 8 mm; zone of inhibition at 750 µg/mL (Escherichia coli [24]): 4 mm; zone of inhibition at 1000 µg/mL (Escherichia coli [25]): 3 mm
Nc1nc(=O)[nH]c2c1C(c1c(-c3ccccc3)[nH]c3ccccc13)C=C(c1ccc(Cl)cc1)O2 (stereo not given)	Active	12	12	12	6	4	4	6	5	3	5	5	5	12	12	13	11	10	8	14	zone of inhibition at 750 µg/mL (Staphylococcus aureus [21]): 14 mm; zone of inhibition at 1000 µg/mL (Staphylococcus aureus [22]): 14 mm; zone of inhibition at 500 µg/mL (Escherichia coli [23]): 13 mm; zone of inhibition at 750 µg/mL (Escherichia coli [24]): 13 mm; zone of inhibition at 1000 µg/mL (Escherichia coli [25]): 14 mm
Cc1ccc(C2=CC(c3c(-c4ccccc4)[nH]c4ccc(C)cc34)c3c(nc4oc(=O)c(C#N)c(N)c4c3N)O2)cc1 (stereo not given)	Active	12	12	13	9	4	4	10	11	10	0	0	0	9	6	4	11	10	10	3	zone of inhibition at 750 µg/mL (Staphylococcus aureus [21]): 3 mm; zone of inhibition at 1000 µg/mL (Staphylococcus aureus [22]): 0 mm; zone of inhibition at 500 µg/mL (Escherichia coli [23]): 10 mm; zone of inhibition at 750 µg/mL (Escherichia coli [24]): 10 mm; zone of inhibition at 1000 µg/mL (Escherichia coli [25]): 10 mm
